Measured values reported in ChEMBL document CHEMBL1130182, “C-terminal modifications of histidyl-N-benzylglycinamides to give improved inhibition of Ras farnesyltransferase, cellular activity, and anticancer activity in mice” (J Med Chem, 1997).
Square brackets hold non-standard residues; d marks the D form. Peptide text beside a SMILES is read from it. * marks the point of attachment. Cbz = O=C(OCc1ccccc1)*; Bn = c1ccc(C*)cc1

Columns and labels:
[1] = target: Protein farnesyltransferase (Rattus norvegicus, UniProt Q02293+Q04631); test: In vitro inhibition of rat farnesyltransferase.; format: protein-complex assay
[2] = species: Mus musculus; test: Minimum effective dose required to detect unfarnesylated Ras in H-Ras-transformed NIH3T3 (H-Ras-F) cells injected into mice.; format: functional

With `C[C@H](CNC(=O)CN(Cc1ccc(OCc2ccccc2)cc1)C(=O)[C@H](Cc1c[nH]cn1)NC(=O)OCc1ccccc1)c1ccccc1` as the molecule, how does the IC50 [1] read?
The IC50 was 5 nM.

What about the MED [2] of the same molecule?
Its MED is 0.05 µM.

Which results are given for `N#CC(CNC(=O)CN(Cc1ccc(OCc2ccccc2)cc1)C(=O)[C@H](Cc1c[nH]cn1)NC(=O)OCc1ccccc1)c1ccccc1` (some centres not stated)?
IC50 [1]: 2 nM; MED [2]: 0.05 µM

With `C[C@H](Cc1ccccc1)NC(=O)CN(Cc1ccc(OCc2ccccc2)cc1)C(=O)[C@H](Cc1c[nH]cn1)NC(=O)OCc1ccccc1` as the molecule, how does the IC50 [1] read?
Its IC50 is 3 nM.

And the MED [2]?
Its MED is 0.05 µM.

`CCC(CC)(CNC(=O)CN(Cc1ccc(OCc2ccccc2)cc1)C(=O)[C@H](Cc1c[nH]cn1)NC(=O)OCc1ccccc1)c1ccccc1` was tested. Which MED [2] did it give?
The MED was 0.2 µM.

For `O=C(CN(Cc1ccc(OCc2ccccc2)cc1)C(=O)[C@H](Cc1c[nH]cn1)NC(=O)OCc1ccccc1)NCC1(c2ccccc2)CCCC1`, which IC50 [1] is on record?
The IC50 was 17 nM.

What about the MED [2] of the same molecule?
Its MED is 0.2 µM.

Which results are given for `C[C@@H](CNC(=O)CN(Cc1ccc(OCc2ccccc2)cc1)C(=O)[C@H](Cc1c[nH]cn1)NC(=O)OCc1ccccc1)c1ccccc1`?
IC50 [1]: 16 nM; MED [2]: 0.2 µM

Which IC50 [1] does the source give for `CC(CNC(=O)CN(Cc1ccc(OCc2ccccc2)cc1)C(=O)[C@H](Cc1c[nH]cn1)NC(=O)OCc1ccccc1)c1ccccc1` (some centres not stated) here?
Its IC50 is 8 nM.

What about the MED [2] of the same molecule?
The MED was 0.05 µM.

What does the source list for `O=C(CN(Cc1ccc(OCc2ccccc2)cc1)C(=O)[C@H](Cc1c[nH]cn1)NC(=O)OCc1ccccc1)NCCOCc1ccccc1`?
IC50 [1]: 320 nM; MED [2]: 1 µM

With `C[C@@H](Cc1ccccc1)NC(=O)CN(Cc1ccc(OCc2ccccc2)cc1)C(=O)[C@H](Cc1c[nH]cn1)NC(=O)OCc1ccccc1` as the molecule, how does the IC50 [1] read?
The IC50 was 41 nM.

And the MED [2]?
The MED was 0.2 µM.

For `CC(C)(Cc1ccccc1)NC(=O)CN(Cc1ccc(OCc2ccccc2)cc1)C(=O)[C@H](Cc1c[nH]cn1)NC(=O)OCc1ccccc1`, which IC50 [1] is on record?
The IC50 was 270 nM.

What about the MED [2] of the same molecule?
Its MED is 1 µM.

Which IC50 [1] does the source give for `O=C(CN(Cc1ccc(OCc2ccccc2)cc1)C(=O)[C@H](Cc1c[nH]cn1)NC(=O)OCc1ccccc1)NCC1(c2ccccc2)CC1` here?
The IC50 was 7 nM.

What about the MED [2] of the same molecule?
The MED was 0.02 µM.

What does the source list for `O=C(CN(Cc1ccc(OCc2ccccc2)cc1)C(=O)[C@H](Cc1c[nH]cn1)NC(=O)OCc1ccccc1)NCC1(c2ccccc2)CCC1`?
IC50 [1]: 6 nM; MED [2]: 0.02 µM

`CCC(CNC(=O)CN(Cc1ccc(OCc2ccccc2)cc1)C(=O)[C@H](Cc1c[nH]cn1)NC(=O)OCc1ccccc1)c1ccccc1` (some centres not stated) was tested. Which IC50 [1] did it give?
Its IC50 is 5 nM.

And the MED [2]?
The MED was 0.05 µM.

For `O=C(CN(Cc1ccc(OCc2ccccc2)cc1)C(=O)[C@H](Cc1c[nH]cn1)NC(=O)OCc1ccccc1)NCCc1ccccc1`, which IC50 [1] is on record?
The IC50 was 62 nM.

What about the MED [2] of the same molecule?
The MED was 0.1 µM.

With `CC(C)(CNC(=O)CN(Cc1ccc(OCc2ccccc2)cc1)C(=O)[C@H](Cc1c[nH]cn1)NC(=O)OCc1ccccc1)c1ccccc1` as the molecule, how does the IC50 [1] read?
The IC50 was 4 nM.

What about the MED [2] of the same molecule?
Its MED is 0.05 µM.

Which MED [2] does the source give for `C[C@@H](NC(=O)[C@H](Cc1c[nH]c2ccccc12)NC(=O)[C@H](COCc1ccccc1)NC(=O)[C@H](Cc1ccc(OCc2ccccc2)cc1)NC(=O)[C@H](Cc1c[nH]cn1)NC(=O)OCc1ccccc1)C(N)=O` (Cbz-HY(Bn)S(Bn)W[dA]-NH2) here?
Its MED is over 100 µM.

With `CCCC(CNC(=O)CN(Cc1ccc(OCc2ccccc2)cc1)C(=O)[C@H](Cc1c[nH]cn1)NC(=O)OCc1ccccc1)c1ccccc1` (some centres not stated) as the molecule, how does the IC50 [1] read?
Its IC50 is 25 nM.

What about the MED [2] of the same molecule?
The MED was 0.2 µM.
